Species on record: Rattus norvegicus
Test: Open TG-GATES - Regimen: Single
Type: toxicity, organism-based, Sprague-Dawley
Parameters: regimen Single, gender Male, age 6 weeks
Conditions: in vivo, po, 0 mg/kg, route gavage, dose level Control; for APTT / Bas / Eos / Fbg / Hb / Ht / Lym / MCH / MCHC / MCV / Mono / Neu / PT / Plat / RBC / Ret / WBC: tissue Blood; for KIDNEY_L / KIDNEY_R / KIDNEY_TOTAL: tissue Kidney; for LIVER: tissue Liver; for A/G / ALP / ALT / AST / BUN / CRE / Ca / Cl / DBIL / GLC / IP / K / LDH / Na / PL / RALB / TBIL / TC / TG / TP / gamma-GTP: tissue Plasma

Molecule `COC1=CC(=O)C[C@@H](C)[C@]12Oc1c(Cl)c(OC)cc(OC)c1C2=O` [GRISEOFULVIN] has a TERMINAL_BW (3 h) of 211.3 g, an APTT (3 h) of 21.6 s and a Bas (3 h) of 0%. The Eos (3 h) was 0.4%, the Fbg (3 h) was 224.4 mg/dL and the Hb (3 h) was 13.4 g/dL. It also gave a Ht (3 h) of 39.4%, a Lym (3 h) of 76% and an MCH (3 h) of 21.7 pg. The MCHC (3 h) was 34.1%, the MCV (3 h) was 63.5 fL and the Mono (3 h) was 3%. For the same molecule, the Neu (3 h) was 19.6%, the PT (3 h) was 12.9 s and the Plat (3 h) was 119.6 x10_4/uL. The RBC (3 h) was 620.8 x10_4/ul, the Ret (3 h) was 7.4% and the WBC (3 h) was 103.5 x10_2/uL. It also gave a KIDNEY_L (3 h) of 1 g, a KIDNEY_R (3 h) of 1 g and a KIDNEY_TOTAL (3 h) of 1.9 g. For the same molecule, the LIVER (3 h) was 9.8 g, the A/G (3 h) was 1.9 and the ALP (3 h) was 1043.6 IU/L. The ALT (3 h) was 45.2 IU/L, the AST (3 h) was 71 IU/L and the BUN (3 h) was 10.8 mg/dL. The CRE (3 h) was 0.3 mg/dL, the Ca (3 h) was 10.8 mg/dL and the Cl (3 h) was 104.4 meq/L. It also gave a DBIL (3 h) of 0.2 mg/dL, a GLC (3 h) of 195.4 mg/dL and an IP (3 h) of 9.3 mg/dL. For the same molecule, the K (3 h) was 4 meq/L, the LDH (3 h) was 129.8 IU/L and the Na (3 h) was 141.4 meq/L. The PL (3 h) was 167.6 mg/dL, the RALB (3 h) was 3.5 g/dL and the TBIL (3 h) was 0.2 mg/dL. The TC (3 h) was 85.8 mg/dL, the TG (3 h) was 97.4 mg/dL and the TP (3 h) was 5.4 g/dL. It also gave a gamma-GTP (3 h) of 1.4 IU/L, a TERMINAL_BW (6 h) of 210.2 g and an APTT (6 h) of 18.8 s. The Bas (6 h) was 0%, the Eos (6 h) was 0.8% and the Fbg (6 h) was 231.8 mg/dL. For the same molecule, the Hb (6 h) was 13.8 g/dL, the Ht (6 h) was 41.1% and the Lym (6 h) was 79.4%. It also gave an MCH (6 h) of 20.9 pg, an MCHC (6 h) of 33.6% and an MCV (6 h) of 62.1 fL. For the same molecule, the Mono (6 h) was 3.2%, the Neu (6 h) was 16% and the PT (6 h) was 12.7 s. It also gave a Plat (6 h) of 132.8 x10_4/uL, an RBC (6 h) of 662.4 x10_4/ul and a Ret (6 h) of 7.1%. For the same molecule, the WBC (6 h) was 107.8 x10_2/uL, the KIDNEY_L (6 h) was 1 g and the KIDNEY_R (6 h) was 1 g. The KIDNEY_TOTAL (6 h) was 1.9 g, the LIVER (6 h) was 9 g and the A/G (6 h) was 1.7. For the same molecule, the ALP (6 h) was 1097.4 IU/L, the ALT (6 h) was 34.6 IU/L and the AST (6 h) was 67 IU/L. It also gave a BUN (6 h) of 8.6 mg/dL, a CRE (6 h) of 0.3 mg/dL and a Ca (6 h) of 10.7 mg/dL. It also gave a Cl (6 h) of 103.4 meq/L, a DBIL (6 h) of 0.098 mg/dL and a GLC (6 h) of 209.6 mg/dL. For the same molecule, the IP (6 h) was 10 mg/dL, the K (6 h) was 3.9 meq/L and the LDH (6 h) was 157.4 IU/L. For the same molecule, the Na (6 h) was 141.4 meq/L, the PL (6 h) was 138.8 mg/dL and the RALB (6 h) was 3.4 g/dL. It also gave a TBIL (6 h) of 0.2 mg/dL, a TC (6 h) of 73.4 mg/dL and a TG (6 h) of 63.2 mg/dL. The TP (6 h) was 5.4 g/dL, the gamma-GTP (6 h) was 1.2 IU/L and the TERMINAL_BW (9 h) was 209.9 g. For the same molecule, the APTT (9 h) was 18.2 s, the Bas (9 h) was 0% and the Eos (9 h) was 1%. For the same molecule, the Fbg (9 h) was 226 mg/dL, the Hb (9 h) was 13.5 g/dL and the Ht (9 h) was 39.7%. For the same molecule, the Lym (9 h) was 72.6%, the MCH (9 h) was 21.4 pg and the MCHC (9 h) was 33.9%. It also gave an MCV (9 h) of 63.1 fL, a Mono (9 h) of 2.4% and a Neu (9 h) of 23.8%. It also gave a PT (9 h) of 12.9 s, a Plat (9 h) of 117.6 x10_4/uL and an RBC (9 h) of 628.8 x10_4/ul. For the same molecule, the Ret (9 h) was 7.4%, the WBC (9 h) was 73.2 x10_2/uL and the KIDNEY_L (9 h) was 0.9 g. The KIDNEY_R (9 h) was 0.9 g, the KIDNEY_TOTAL (9 h) was 1.9 g and the LIVER (9 h) was 8.3 g. The A/G (9 h) was 1.7, the ALP (9 h) was 1130.6 IU/L and the ALT (9 h) was 32.4 IU/L. For the same molecule, the AST (9 h) was 59.8 IU/L, the BUN (9 h) was 11 mg/dL and the CRE (9 h) was 0.4 mg/dL. It also gave a Ca (9 h) of 10.4 mg/dL, a Cl (9 h) of 103.6 meq/L and a DBIL (9 h) of 0.078 mg/dL. For the same molecule, the GLC (9 h) was 206 mg/dL, the IP (9 h) was 10.1 mg/dL and the K (9 h) was 4 meq/L. The LDH (9 h) was 100.8 IU/L, the Na (9 h) was 141.8 meq/L and the PL (9 h) was 148.2 mg/dL. The RALB (9 h) was 3.5 g/dL, the TBIL (9 h) was 0.1 mg/dL and the TC (9 h) was 79.8 mg/dL. It also gave a TG (9 h) of 41.2 mg/dL, a TP (9 h) of 5.5 g/dL and a gamma-GTP (9 h) of 1.2 IU/L. The TERMINAL_BW (24 h) was 224 g, the APTT (24 h) was 18.9 s and the Bas (24 h) was 0%. The Eos (24 h) was 1%, the Fbg (24 h) was 214.4 mg/dL and the Hb (24 h) was 13 g/dL. It also gave a Ht (24 h) of 39.3%, a Lym (24 h) of 79.2% and an MCH (24 h) of 21.6 pg. The MCHC (24 h) was 33%, the MCV (24 h) was 65.4 fL and the Mono (24 h) was 3%. For the same molecule, the Neu (24 h) was 16.6%, the PT (24 h) was 12.8 s and the Plat (24 h) was 111.8 x10_4/uL. It also gave an RBC (24 h) of 601.4 x10_4/ul, a Ret (24 h) of 8% and a WBC (24 h) of 72.9 x10_2/uL. For the same molecule, the KIDNEY_L (24 h) was 1.1 g, the KIDNEY_R (24 h) was 1 g and the KIDNEY_TOTAL (24 h) was 2.1 g. It also gave an LIVER (24 h) of 11.1 g, an A/G (24 h) of 1.7 and an ALP (24 h) of 884.4 IU/L. It also gave an ALT (24 h) of 37.6 IU/L, an AST (24 h) of 61.8 IU/L and a BUN (24 h) of 16 mg/dL. For the same molecule, the CRE (24 h) was 0.4 mg/dL, the Ca (24 h) was 10.9 mg/dL and the Cl (24 h) was 104 meq/L. The DBIL (24 h) was 0.1 mg/dL, the GLC (24 h) was 208.8 mg/dL and the IP (24 h) was 7.5 mg/dL. For the same molecule, the K (24 h) was 4.2 meq/L, the LDH (24 h) was 148.2 IU/L and the Na (24 h) was 141.4 meq/L. For the same molecule, the PL (24 h) was 149 mg/dL, the RALB (24 h) was 3.4 g/dL and the TBIL (24 h) was 0.2 mg/dL. For the same molecule, the TC (24 h) was 78 mg/dL, the TG (24 h) was 119.8 mg/dL and the TP (24 h) was 5.4 g/dL. It also gave a gamma-GTP (24 h) of 1.2 IU/L.

Reference: ChEMBL document CHEMBL3885861, “Open TG-GATES”
